According to PubChem BioAssay (NCI):
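Cultured in 96-well plates, cells were exposed to test compound for 48 hours across five concentrations. The concentration for 50% growth inhibition is given as GI50. TGI: total growth inhibition.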

Key:
Assay in all cases: inhibition of tumour cell growth, NCI panel, 48 h
A498 renal = system: A498 renal
COLO 205 colon = system: COLO 205 colon
HCT-116 colon = system: HCT-116 colon
HOP-62 NSCLC = system: HOP-62 NSCLC
HOP-92 NSCLC = system: HOP-92 NSCLC
HT29 colon = system: HT29 colon
K-562 leukemia = system: K-562 leukemia
LOX IMVI melanoma = system: LOX IMVI melanoma
MOLT-4 leukemia = system: MOLT-4 leukemia
NCI-H226 lung = system: NCI-H226 lung
OVCAR-3 ovarian = system: OVCAR-3 ovarian
SK-MEL-28 melanoma = system: SK-MEL-28 melanoma
UACC-62 melanoma = system: UACC-62 melanoma

Compound: Nc1ccc(-c2ncc3cc(-c4cccc(-c5cc6cnc(-c7ccc(N)cc7)nc6c6ccccc56)c4)c4ccccc4c3n2)cc1
- TGI (A498 renal): > 100 µM
- TGI (COLO 205 colon): > 100 µM
- TGI (HCT-116 colon): > 100 µM
- TGI (HOP-62 NSCLC): > 100 µM
- TGI (HOP-92 NSCLC): > 100 µM
- TGI (HT29 colon): > 100 µM
- TGI (K-562 leukemia): > 100 µM
- TGI (LOX IMVI melanoma): > 100 µM
- TGI (MOLT-4 leukemia): > 100 µM
- TGI (NCI-H226 lung): > 100 µM
- TGI (OVCAR-3 ovarian): > 100 µM
- TGI (SK-MEL-28 melanoma): > 100 µM
- TGI (UACC-62 melanoma): > 100 µM

Compound: c1cc(-c2csc(-c3ccsc3)c2)cs1
- TGI (A498 renal): > 100 µM
- TGI (COLO 205 colon): > 100 µM
- TGI (HCT-116 colon): > 100 µM
- TGI (HOP-62 NSCLC): > 100 µM
- TGI (HOP-92 NSCLC): > 100 µM
- TGI (HT29 colon): > 100 µM
- TGI (K-562 leukemia): > 100 µM
- TGI (LOX IMVI melanoma): > 100 µM
- TGI (MOLT-4 leukemia): > 100 µM
- TGI (NCI-H226 lung): 83.2 µM
- TGI (OVCAR-3 ovarian): > 100 µM
- TGI (SK-MEL-28 melanoma): > 100 µM
- TGI (UACC-62 melanoma): > 100 µM

Compound: OC(CC(CC(O)(C(F)(F)Cl)C(F)(F)Cl)=NNc1ccccc1)(C(F)(F)Cl)C(F)(F)Cl
- TGI (A498 renal): 6.72 µM
- TGI (COLO 205 colon): 3.51 µM
- TGI (HCT-116 colon): 3.89 µM
- TGI (HOP-62 NSCLC): 7.95 µM
- TGI (HOP-92 NSCLC): 5.19 µM
- TGI (HT29 colon): > 10 µM
- TGI (K-562 leukemia): > 10 µM
- TGI (LOX IMVI melanoma): 6.91 µM
- TGI (MOLT-4 leukemia): > 10 µM
- TGI (NCI-H226 lung): 7.89 µM
- TGI (OVCAR-3 ovarian): 6.38 µM
- TGI (SK-MEL-28 melanoma): 8.06 µM
- TGI (UACC-62 melanoma): 4.95 µM

Compound: C#CCn1c(=O)ccn(/C(=C\C(=O)OCC)C(=O)OCC)c1=O
- TGI (A498 renal): 36 µM
- GI50 (COLO 205 colon): 1.53 µM
- TGI (COLO 205 colon): 3.17 µM
- TGI (HCT-116 colon): 16.5 µM
- TGI (HOP-62 NSCLC): > 54.4 µM
- TGI (HOP-92 NSCLC): 4.5 µM
- TGI (HT29 colon): 4.4 µM
- TGI (K-562 leukemia): > 100 µM
- TGI (LOX IMVI melanoma): > 50.5 µM
- TGI (MOLT-4 leukemia): > 27.7 µM
- TGI (NCI-H226 lung): 40.4 µM
- TGI (OVCAR-3 ovarian): 16.3 µM
- TGI (SK-MEL-28 melanoma): 25.7 µM
- TGI (UACC-62 melanoma): 28.3 µM

Compound: CCOC(=O)N1CCN(c2c(C)nc(C)[nH]c2=O)CC1
- TGI (A498 renal): > 100 µM
- TGI (COLO 205 colon): > 100 µM
- TGI (HCT-116 colon): > 100 µM
- TGI (HOP-62 NSCLC): > 100 µM
- TGI (HOP-92 NSCLC): > 100 µM
- TGI (HT29 colon): > 100 µM
- TGI (K-562 leukemia): > 100 µM
- TGI (LOX IMVI melanoma): > 100 µM
- TGI (MOLT-4 leukemia): > 100 µM
- TGI (NCI-H226 lung): > 100 µM
- TGI (OVCAR-3 ovarian): > 100 µM
- TGI (SK-MEL-28 melanoma): > 100 µM
- TGI (UACC-62 melanoma): > 100 µM

Compound: CCC(C)C(C(=O)N/N=C1/SCC(=O)N1C)C(=O)N/N=C1/SCC(=O)N1C (centres undefined)
- TGI (A498 renal): > 100 µM
- TGI (COLO 205 colon): > 100 µM
- TGI (HCT-116 colon): > 100 µM
- TGI (HOP-62 NSCLC): > 100 µM
- TGI (HOP-92 NSCLC): > 100 µM
- TGI (HT29 colon): > 100 µM
- TGI (K-562 leukemia): > 100 µM
- TGI (LOX IMVI melanoma): > 100 µM
- TGI (MOLT-4 leukemia): > 100 µM
- TGI (NCI-H226 lung): > 100 µM
- TGI (OVCAR-3 ovarian): > 100 µM
- TGI (SK-MEL-28 melanoma): > 100 µM
- TGI (UACC-62 melanoma): > 100 µM
